The test system of the assay is Aβ production in HEK cells over-expressing mutated β-APP (SFAD). Briefly: Aβ production inhibition, sandwich-ELISA in HEK cells, over-expressed mutated β-APP (SE-SFAD). Type of assay: cell-based, human. The following applies: Homo sapiens, HEK293, HEK cells; for IC50: based on the respective plateau of maximum inhibition; for Emax: maximum inhibition plateau, read-out: SE-SFAD max. inhibition %. How it is done: The effect of test substances on the inhibition of Aβ-amyloid production can be measured in the supernatant of cell cultures of β-APP expressed cells using ELISA tests or other quantitative determination methods for β-APP degradation products. Typically, 8×10^5 cells (e.g. HEK cells, which express recombinant human β-APP variants) are plated out in each well of a culture dish having 24 wells in growth media such as e.g. OPTIMEM (Gibco) and the test compound is then added. After an incubation period of 24 to 48 hours at 37° C. in a 10% CO2 atmosphere the supernatant is removed from the cell cultures and the β-APP degradation products (e.g. Aβ or β-[…]) are determined with the aid of ELISA (or sandwich ELISA) analysis or by means of quantitative immunoprecipitation (after metabolic radiolabelling of the cell proteins). Typically, 300 μl of the cell supernatant are tested according to the state of the art for ELISA tests in culture dishes having 96 wells. In the case of sandwich ELISA for Aβ, the binding antibody can be directed against the first 16 amino acids of Aβ-peptide (e.g. 6E10 Senetek, Maryland Heights, Mo.) and the detection antibody can be directed against amino acids 17-40 or 17-42 of Aβ and carries a detection system such as e.g. peroxidase. A simple ELISA test with an antibody, e.g. 22C11 (Boehringer Mannheim), can be used as the test for […]; the second antibody can be an anti-(mouse) Ig having a detection system, such as e.g. peroxidase. The peroxidase reaction can be carried out e.g. using a TMB substrate (BioRAD) and the measurements can be carried out at 650 nm using an ELISA reading apparatus. […] SE-SFAD signifies the Aβ production inhibition measured using sandwich-ELISA in HEK cells, SFAD signifies over-expressed mutated β-APP, and SE-WT signifies the Aβ production inhibition measured using sandwich-ELISA in HEK cells which over-express Wild type β-APP. The IC50 values are based on the respective plateau of maximum inhibition.

Usually IC50 stands for the concentration that gives 50% inhibition. For the compound `O=C(O[C@@H]1CN(C(=O)OCc2ccccc2)C[C@@H]1O)c1cc(-c2ccccc2)c(=O)n2ccc3ccsc3c12` (racemic) [Compound 57, (3RS,4SR)-1-Benzyloxy-carbonyl-4-hydroxy-pyrrolidin-3-yl 7-oxo-8-phenyl-7H-thieno[2,3-a]quinolizine-10-carboxylate], the 50% inhibitory concentration (IC50) turned out to be 500 nM and the Emax turned out to be 35%.

Consider `COCCN(C(=O)c1cc(-c2ccc(OCc3ccccc3)cc2)c(=O)n2ccc3cc(C(C)O)sc3c12)c1ccccc1` (racemic) [Compound 75, (RS)-8-(4-Benzyloxy-phenyl)-2-(1-hydroxy-ethyl)-7-oxo-7H-thieno[2,3-a]quinolizine-10-carboxylic acid (2-methoxy-ethyl)-phenyl-amide], for which half-maximal inhibition (IC50) required 1300 nM and the Emax turned out to be 100%.

`O=C1CN(C(=O)c2cc(-c3ccccc3)c(=O)n3ccc4ccsc4c23)C1` [Compound 7, 10-(3-Oxo-azetidin-1-carbonyl)-8-phenyl-thieno[2,3-a]quinolizin-7-one]: half-maximal inhibition (IC50) was put at 50000 nM and the Emax stood at 100%.

Consider `COC(=O)c1cc(-c2ccccc2)c(=O)n2ccc3ccsc3c12` [Compound 15, Methyl 7-oxo-8-phenyl-7H-thieno[2,3-a]quinolizine-10-carboxylate], for which the IC50 amounted to 3000 nM and the Emax was 60%.

Consider `COC(=O)c1cc(-c2cccc(C(F)(F)F)c2)c(=O)n2ccccc12` [Compound 17, Methyl 4-oxo-3-(3-trifluoromethyl-phenyl)-4H-quinolizine-1-carboxylate], for which the IC50 came to 500 nM and the Emax worked out at 30%.

Turning to `O=C(NC1CCCCC1O)c1cc(-c2ccccc2)c(=O)n2ccc3ccsc3c12` (stereo not drawn) [Compound 25], the midpoint of inhibition, the IC50, lay at 10000 nM and the Emax was 100%.

On to `Cn1ccnc1COC(=O)c1cc(-c2ccccc2)c(=O)n2ccc3ccsc3c12` [Compound 27, 1-Methyl-1H-imidazol-2-yl-methyl 7-oxo-8-phenyl-7H-thieno[2,3-a]-quinolizine-10-carboxylate methanesulphonate], for which half-maximal inhibition (IC50) required 50000 nM and the Emax turned out to be 100%.

In the case of `NC(=O)c1cc(-c2ccccc2)c(=O)n2ccc3ccsc3c12` [Compound 56, 7-Oxo-8-phenyl-7H-thieno[2,3-a]quinolizine-10-carboxylic acid amide], the IC50 was determined as 1000 nM and the Emax came to 35%.

Regarding `CCN(CC)Cc1cccc(COC(=O)c2cc(-c3ccccc3)c(=O)n3ccc4ccsc4c23)c1` [Compound 60, 3-Diethylamino-methyl-benzyl 7-oxo-8-phenyl-7H-thieno[2,3-a]-quinolizine-10-carboxylate methanesulphonate], the IC50 was 1200 nM and the Emax worked out at 100%.

Turning to `COCCNC(=O)c1cc(-c2ccc(OCc3ccccc3)cc2)c(=O)n2ccc3ccsc3c12` [Compound 66, 8-(4-Benzyloxy-phenyl)-7-oxo-7H-thieno[2,3-a]quinolizine-10-carboxylic acid (2-methoxy-ethyl)-amide], half-maximal inhibition (IC50) required 22000 nM and the Emax was 60%.

In the case of `CCN(CCOC)C(=O)c1cc(-c2ccc(OCc3ccccc3)cc2)c(=O)n2ccc3ccsc3c12` [Compound 68, 8-(4-Benzyloxy-phenyl)-7-oxo-7H-thieno[2,3-a]quinolizine-10-carboxylic acid ethyl-(2-methoxy-ethyl)-amide], the IC50 came to 8000 nM and the Emax amounted to 25%.

`COCCN(C(=O)c1cc(-c2ccc(OCc3ccccc3)cc2)c(=O)n2ccc3ccsc3c12)C(C)C` [Compound 69, 8-(4-Benzyloxy-phenyl)-7-oxo-7H-thieno[2,3-a]quinolizine-10-carboxylic acid isopropyl-(2-methoxy-ethyl)-amide]: the IC50 came out at 800 nM and the Emax amounted to 45%.

In the case of `COCCN(CC1CC1)C(=O)c1cc(-c2ccc(OCc3ccccc3)cc2)c(=O)n2ccc3ccsc3c12` [Compound 70, 8-(4-Benzyloxy-phenyl)-7-oxo-7H-thieno[2,3-a]quinolizine-10-carboxylic acid cyclopropylmethyl-(2-methoxy-ethyl)-amide], the IC50 is under 1000 nM and the Emax amounted to 100%.

Turning to `COCCN(Cc1ccccc1)C(=O)c1cc(-c2ccc(OCc3ccccc3)cc2)c(=O)n2ccc3ccsc3c12` [Compound 71, 8-(4-Benzyloxy-phenyl)-7-oxo-7H-thieno[2,3-a]quinolizine-10-carboxylic acid benzyl-(2-methoxy-ethyl)-amide], the IC50 was found to be 570 nM and the Emax came to 100%.

Turning to `COCCN(C(=O)c1cc(-c2ccc(OCc3ccccc3)cc2)c(=O)n2ccc3ccsc3c12)c1ccccc1` [Compound 72, 8-(4-Benzyloxy-phenyl)-7-oxo-7H-thieno[2,3-a]quinolizine-10-carboxylic acid (2-methoxy-ethyl)-phenyl-amide], the IC50 came to 500 nM and the Emax was 100%.

`O=C(c1cc(-c2ccc(OCc3ccccc3)cc2)c(=O)n2ccc3ccsc3c12)N(CCO)c1ccccc1` [Compound 73, 8-(4-Benzyloxy-phenyl)-7-oxo-7H-thieno[2,3-a]quinolizine-10-carboxylic acid (2-hydroxy-ethyl)-phenyl-amide]: 1300 nM corresponded to half-maximal inhibition (IC50) and the Emax is 55%.

On to `COCCN(C(=O)c1cc(-c2ccc(OCc3ccccc3)cc2)c(=O)n2ccc3cc(C)sc3c12)c1ccccc1` [Compound 74], for which half-maximal inhibition (IC50) was put at 300 nM and the Emax was found to be 100%.

For the compound `COCCN(C(=O)c1cc(-c2ccc(OCc3ccccc3)cc2)c(=O)n2ccc3cc(C(=O)N(C)C)sc3c12)c1ccccc1` [Compound 76, 8-(4-Benzyloxy-phenyl)-7-oxo-7H-thieno[2,3-a]quinolizine-2,10-dicarboxylicacid 2-dimethylamide 10-[(2-methoxy-ethyl)-phenyl-amide]], the IC50 stood at 2800 nM and the Emax worked out at 40%.

Turning to `CCc1cc2ccn3c(=O)c(-c4ccc(OCc5ccccc5)cc4)cc(C(=O)N(CCOC)c4ccccc4)c3c2s1` [Compound 78, 8-(4-Benzyloxy-phenyl)-2-ethyl-7-oxo-7H-thieno[2,3-a]quinolizine-10-carboxylic acid (2-methoxy-ethyl)-phenyl-amide], the Emax amounted to 40%.

For `CCCc1cc2ccn3c(=O)c(-c4ccc(OCc5ccccc5)cc4)cc(C(=O)N(CCOC)c4ccccc4)c3c2s1` [Compound 79, 8-(4-Benzyloxy-phenyl)-2-propyl-7-oxo-7H-thieno[2,3-a]quinolizine-10-carboxylic acid (2-methoxy-ethyl)-phenyl-amide], the Emax fell in the range of 20 to 35%.

As for `COCCN(C(=O)c1cc(-c2ccc(OCc3ccccc3)cc2)c(=O)n2ccc3cc(C(=O)O)sc3c12)c1ccccc1` [Compound 80, 8-(4-Benzyloxy-phenyl)-10-[(2-methoxy-ethyl)-phenyl-carbamoyl]-7-oxo-7H-thieno[2,3-a]quinolizine-2-carboxylic acid], the IC50 was 1000 to 3000 nM and the Emax is 30 to 70%.

Regarding `CCN(CCOC)C(=O)c1cc(-c2ccc(-c3ccccc3)cc2)c(=O)n2ccc3ccsc3c12` [Compound 93, 8-(Biphenyl-4-yl)-7-oxo-7H-thieno[2,3-a]quinolizine-10-carboxylic acid ethyl-(2-methoxy-ethyl)-amide], the IC50 stood at 4200 nM and the Emax worked out at 100%.

Turning to `CCOC(=O)c1cc(-c2ccc(-c3ccccc3)cc2)c(=O)n2ccc3ccsc3c12` [Compound 94, Ethyl 8-(biphenyl-4-yl)-7-oxo-7H-thieno[2,3-a]quinolizine-10-carboxylate], the Emax was 20 to 40%.

Take `COCCN(CCOC)C(=O)c1cc(-c2ccc(-c3ccccc3)cc2)c(=O)n2ccc3ccsc3c12` [Compound 95, 8-(Biphenyl-4-yl)-7-oxo-7H-thieno[2,3-a]quinolizine-10-carboxylic acid bis-(2-methoxy-ethyl)-amide]: the IC50 worked out at 1300 nM and the Emax was 100%.

`COC(=O)c1cc(-c2ccc(Oc3ccccc3)cc2)c(=O)n2ccc3ccsc3c12` [Compound 96, Methyl 7-oxo-8-(4-phenoxy-phenyl)-7H-thieno[2,3-a]quinolizine-10-carboxylate]: it took 1000 nM to reach half-maximal inhibition (IC50) and the Emax is 40%.

As for `COCCN(CCOC)C(=O)c1cc(-c2ccc(Oc3ccccc3)cc2)c(=O)n2ccc3ccsc3c12` [Compound 97, 7-Oxo-8-(4-phenoxy-phenyl)-7H-thieno[2,3-a]quinolizine-10-carboxylic acid bis-(2-methoxy-ethyl)-amide], inhibition was half-maximal at 2200 nM (IC50) and the Emax worked out at 100%.

As to `COCCNC(=O)c1cc(-c2ccc(Oc3ccccc3)cc2)c(=O)n2ccc3ccsc3c12` [Compound 98, 7-Oxo-8-(4-phenoxy-phenyl)-7H-thieno[2,3-a]quinolizine-10-carboxylic acid (2-methoxy-ethyl)-amide], the IC50 turned out to be 2400 nM and the Emax was in the range of 70 to 90%.
